Numbering of substitutions follows the chain as printed. One block for each compound: values may come before it.
How the values were obtained:
β(1,4)-Gal-T1(Y289L) = target: T1, β(1,4)-Gal-T1(Y289L) (Bos taurus, UniProt P08037, I205M/L206V/P187L/V158I/Y289L); test: Glycosyltransfer of UDP-galactosamine derivatives to trimmed trastuzumab with Gal-T1(Y289L) expressed in E. coli, mass spectral analysis; format: biochemical, bovine; details: trimmed trastuzumab 10 mg/mL, pH 8.0, 30° C. overnight, reduced sample
T1 construct: made in house; host or cells: E. coli
T1 sequence (P08037 1-402 V158I/P187L/I205M/L206V/Y289L): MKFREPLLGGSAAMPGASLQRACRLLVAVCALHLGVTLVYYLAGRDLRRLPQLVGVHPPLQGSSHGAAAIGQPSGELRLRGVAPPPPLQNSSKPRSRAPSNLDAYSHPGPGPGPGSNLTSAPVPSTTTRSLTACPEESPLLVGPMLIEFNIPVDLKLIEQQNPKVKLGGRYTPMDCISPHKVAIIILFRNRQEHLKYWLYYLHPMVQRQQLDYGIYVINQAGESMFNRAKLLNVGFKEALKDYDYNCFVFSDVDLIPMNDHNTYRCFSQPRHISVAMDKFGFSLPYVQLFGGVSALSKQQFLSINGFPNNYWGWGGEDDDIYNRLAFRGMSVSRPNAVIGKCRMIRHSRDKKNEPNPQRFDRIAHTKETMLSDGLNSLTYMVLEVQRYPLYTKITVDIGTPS
Description: General Protocol for Glycosyltransfer of Galactose Derivative UDP-GalNAz 21-24 with Gal-T1(Y289L) (Expressed in E. coli).
Enzymatic introduction of UDP-Gal derivatives 21-24 onto deglycosylated trastuzumab was effected with a mutant of bovine β(1,4)-galactosyltransferase [β(1,4)-Gal-T1(Y289L)] (expressed in E. coli). The deglycosylated trastuzumab (10 mg/mL) was incubated with the appropriate UDP-galactose derivative (0.4 mM) and β(1,4)-Gal-T1(Y289L) (1 mg/mL) in 10 mM MnCl2 and 25 mM Tris-HCl pH 8.0 for 16 hours at 30° C.
Next, the functionalized trastuzumab was incubated with protein A agarose (40 μL per mg IgG) for 2 hours at 4° C. The protein A agarose was washed three times with PBS and the IgG was eluted with 100 mM glycine-HCl pH 2.7. The eluted IgG was neutralized with 1 M Tris-HCl pH 8.0 and concentrated and washed with PBS using an Amicon Ultra-0.5, Ultracel-10 Membrane (Millipore) to a concentration of 15-20 mg/mL.
Trimmed trastuzumab (10 mg/mL, 3.3 nmol), obtained by Endo S treatment of trastuzumab, was incubated with UDP-galactosamine variant 21 (2.5 mM) and β(1,4)-Gal-T1(Y289L) (0.68 mg/mL, 45 μL) in 10 mM MnCl2 and 25 mM Tris-HCl pH 8.0 at 30° C. overnight.
Trimmed trastuzumab (10 mg/mL, 1.3 nmol), obtained by Endo S treatment of trastuzumab, was incubated with UDP-galactosamine variant 22 (4 mM) and β(1,4)-Gal-T1(Y289L) (1.4 mg/mL, 10 μL) in 10 mM MnCl2 and 25 mM Tris-HCl pH 8.0 at 30° C. overnight. Mass spectral analysis of the reduced sample indicated the formation of the product (49750.9 Da, approximately 80% of total heavy chain), resulting from galactosamide furan-2-carboxyl acid transfer to core GlcNAc(Fuc) substituted trastuzumab heavy chain as shown in FIG. 9.
Trimmed trastuzumab (10 mg/mL, 6.6 nmol), obtained by Endo S treatment of trastuzumab, was incubated with the 4-azido-3,5-difluorobenzoyl derivative of UDP-galactosamine (23, 7 mM) and β(1,4)-Gal-T1(Y289L) (2 mg/mL) in 10 mM MnCl2 and 25 mM Tris-HCl pH 8.0 at 30° C. overnight. Mass spectral analysis of the reduced sample indicated the formation of a one major product (49813 Da, approximately 90% of total heavy chain), resulting from transfer of 23 to core GlcNAc(Fuc)-substituted trastuzumab heavy chain.
Trimmed trastuzumab (10 mg/mL, 1.3 nmol), obtained by Endo S treatment of trastuzumab, was incubated with UDP-galactosamine variant 24 (4 mM) and (3(1,4)-Gal-T1(Y289L) (1.4 mg/mL, 10 μL) in 10 mM MnCl2 and 25 mM Tris-HCl pH 8.0 at 30° C. overnight.

β4Gal-T1 = target: T2, β4Gal-T1 (Bos taurus, UniProt P08037); details: native enzyme; cited from earlier work
T2 sequence (P08037 1-402): T1 sequence (P08037 1-402 V158I/P187L/I205M/L206V/Y289L) with I158V, L187P, M205I, V206L, L289Y

β4Gal-T1(Y289L) = target: T3, β4Gal-T1(Y289L) (Bos taurus, UniProt P08037, Y289L); details: GlcNAc acceptor; cited from earlier work
T3 sequence (P08037 1-402 Y289L): T1 sequence (P08037 1-402 V158I/P187L/I205M/L206V/Y289L) with I158V, L187P, M205I, V206L

Gal-T1(Y289L,C342T) = target: T4, Gal-T1(Y289L,C342T) (Bos taurus, UniProt P08037, C342T/Y289L); test: Glycosyltransfer to trimmed trastuzumab with Gal-T1(Y289L,C342T) expressed in CHO; format: biochemical, bovine; details: trimmed trastuzumab 10 mg/mL; UDP derivative 1 mM; enzyme 1.0 mg/mL; pH 8.0, 30° C. overnight
T4 construct: host or cells: CHO K1
T4 sequence (P08037 74-402 V158I/P187L/I205M/L206V/Y289L/C342T): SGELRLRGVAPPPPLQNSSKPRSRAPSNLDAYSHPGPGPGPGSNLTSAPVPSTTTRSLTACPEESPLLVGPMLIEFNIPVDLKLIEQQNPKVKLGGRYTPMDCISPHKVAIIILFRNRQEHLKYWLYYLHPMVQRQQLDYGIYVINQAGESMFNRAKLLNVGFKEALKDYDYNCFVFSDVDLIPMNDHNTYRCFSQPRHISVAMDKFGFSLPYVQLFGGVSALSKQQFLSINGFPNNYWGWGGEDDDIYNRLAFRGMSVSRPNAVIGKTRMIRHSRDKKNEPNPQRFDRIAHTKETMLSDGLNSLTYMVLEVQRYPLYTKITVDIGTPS
Description: (§1) A solution of 20 μg (modified) IgG was incubated for 1 hour at 37° C. with Fabricator™ (commercially available from Genovis, Lund, Sweden) (1.25 U/μL) in phosphate-buffered saline (PBS) pH 6.6 in a total volume of 10 μL. Fabricator™-digested samples were washed trice with milliQ using an Amicon Ultra-0.5, Ultracel-10 Membrane (Millipore) resulting in a final sample volume of approximately 40 μL. The Fc/2 fragment was analyzed by electrospray ionization time-of-flight (ESI-TOF) on a JEOL AccuTOF. Deconvoluted spectra were obtained using Magtran software.
(§2) A set of Gal-T 1 mutants encoding residues 74-402 of bovine Gal-T 1 were transiently expressed in CHO K1 cells by Evitria (Zurich, Switzerland) which include the Gal-T1 single mutants Y289L (represented by SEQ ID NO: 26), Y289F (represented by SEQ ID NO: 27), Y289M (represented by SEQ ID NO: 28), Y289V (represented by SEQ ID NO: 29), Y289A (represented by SEQ ID NO: 30), and Y289G (represented by SEQ ID NO: 31), and the Gal-T1 double mutants Y289L,C342T (represented by SEQ ID NO: 32), and Y289M,C342T (represented by SEQ ID NO: 33). The mutants were purified using a cation exchange column (Source 15S HR16/10 column, GE Healthcare) as described above. Purified proteins were analyzed by SDS-PAGE. […]

Gal-T1(Y289M,C342T) = target: T5, Gal-T1(Y289M,C342T) (Bos taurus, UniProt P08037, C342T/Y289M); test: Glycosyltransfer to trimmed trastuzumab with Gal-T1(Y289M,C342T) expressed in CHO; format: biochemical, bovine; details: trimmed trastuzumab 10 mg/mL; UDP derivative 5 mM; enzyme 1.0 mg/mL; pH 8.0, 30° C. overnight
T5 construct: host or cells: CHO K1
T5 sequence (P08037 74-402 V158I/P187L/I205M/L206V/Y289M/C342T): T4 sequence (P08037 74-402 V158I/P187L/I205M/L206V/Y289L/C342T) with L216M
Description: as §1, §2

[1] = UDP derivative 4 mM, enzyme 1.4 mg/mL

product, % of total heavy chain (β(1,4)-Gal-T1(Y289L); [1]): approximately 90%
SMILES: O=C(NC1C(OP(=O)(O)OP(=O)(O)OCC2OC(n3ccc(=O)[nH]c3=O)C(O)C2O)OC(CO)C(O)C1O)C1CCCC1 (stereo not shown) [Compound 24, Cyclopentylcarbonyl Derivative of UDP-GalNH2]

SMILES: O=C(NC1C(OP(=O)(O)OP(=O)(O)OCC2OC(n3ccc(=O)[nH]c3=O)C(O)C2O)OC(CO)C(O)C1O)c1cccnc1 (stereo not shown) [Compound 21, 3-pyridylcarbonyl Derivative of UDP-GalNH2]
product, % of total heavy chain (β(1,4)-Gal-T1(Y289L); UDP derivative 2.5 mM, enzyme 0.68 mg/mL): approximately 5%

SMILES: CC(=O)N[C@H]1[C@@H](OP(=O)(O)OP(=O)(O)OC[C@H]2O[C@@H](n3ccc(=O)[nH]c3=O)[C@H](O)[C@@H]2O)O[C@H](CO)[C@H](O)[C@@H]1O [UDP-GalNAc]
efficiency of GalNAc transfer compared to Gal transfer from UDP-Gal (β4Gal-T1): 0.1%
efficiency of GalNAc transfer relative to β4Gal-T1/Gal transfer (β4Gal-T1(Y289L)): ~100%

product, % of total heavy chain (β(1,4)-Gal-T1(Y289L); [1]): approximately 80%
SMILES: O=C(NC1C(OP(=O)(O)OP(=O)(O)OCC2OC(n3ccc(=O)[nH]c3=O)C(O)C2O)OC(CO)C(O)C1O)c1ccco1 (stereo not shown) [Compound 22, Furylcarbonyl Derivative of UDP-GalNH2]

SMILES: [N-]=[N+]=Nc1c(F)c(F)c(C(=O)N[C@H]2[C@@H](OP(=O)(O)OP(=O)(O)OC[C@H]3O[C@@H](n4ccc(=O)[nH]c4=O)[C@H](O)[C@@H]3O)O[C@H](CO)[C@H](O)[C@@H]2O)c(F)c1F [Compound 23b, 4-azido-2,3,5,6-tetrafluorobenzoyl Derivative of UDP-GalNH2]
conversion into product (Gal-T1(Y289L,C342T)): approximately 70%
conversion into product (Gal-T1(Y289M,C342T)): approximately 10%

— patent publication US20170009266A1, “PROCESS FOR THE ATTACHMENT OF A GALNAC MOIETY COMPRISING A (HETERO)ARYL GROUP TO A GLCNAC MOIETY, AND PRODUCT OBTAINED THEREBY” (SYNAFFIX B.V., priority 2014, published 2017)
